# Reference: article PMC5218480 (PLoS ONE, 2017)
# System: MV-4-11 cells
# Assay: Gene expression microarray analysis (Affymetrix PrimeView) and GSEA
# Assay type: cell-based, human
# Design: RFU PODN (11730768_x_at) / Fold change /veh PODN (11730768_x_at) / RFU LINC00158 (11744669_a_at) / Fold change /veh LINC00158 (11744669_a_at) / RFU DUSP10 (11751237_a_at) / Fold change /veh DUSP10 (11751237_a_at) / RFU ID3 (11757404_x_at) / Fold change /veh ID3 (11757404_x_at) / RFU PLEKHG5 (11737974_s_at) / Fold change /veh PLEKHG5 (11737974_s_at) / RFU LRRC4B (11730491_at) / Fold change /veh LRRC4B (11730491_at) / RFU GIMAP4 (11747438_a_at) / Fold change /veh GIMAP4 (11747438_a_at) / RFU KRT8 (11758183_x_at) / Fold change /veh KRT8 (11758183_x_at) / RFU CNN1 (11734310_a_at) / Fold change /veh CNN1 (11734310_a_at) / RFU VPS37D (11726825_at) / Fold change /veh VPS37D (11726825_at) / RFU C10orf10 (11716522_x_at) / Fold change /veh C10orf10 (11716522_x_at) / RFU KIR2DL2 /// KIR2DL4 /// KIR2DL5A /// KIR2DL5B /// KIR2DS1 /// KIR2DS2 /// KIR2DS3 /// KIR2DS4 /// KIR3DL3 /// KIR3DL3 /// KIR3DS1 (11738374_at) / Fold change /veh KIR2DL2 /// KIR2DL4 /// KIR2DL5A /// KIR2DL5B /// KIR2DS1 /// KIR2DS2 /// KIR2DS3 /// KIR2DS4 /// KIR3DL3 /// KIR3DL3 /// KIR3DS1 (11738374_at) / RFU C1QL1 (11718748_at) / Fold change /veh C1QL1 (11718748_at) / RFU TMPRSS4 (11747572_a_at) / Fold change /veh TMPRSS4 (11747572_a_at) / RFU HAMP (11756126_x_at) / Fold change /veh HAMP (11756126_x_at) / RFU RNFT2 (11725882_a_at) / Fold change /veh RNFT2 (11725882_a_at) / RFU NR4A2 (11747474_a_at) / Fold change /veh NR4A2 (11747474_a_at) / RFU ABCC12 (11746883_a_at) / Fold change /veh ABCC12 (11746883_a_at) / RFU TMEM136 (11760407_x_at) / Fold change /veh TMEM136 (11760407_x_at) / RFU CLDN22 /// WWC2 (11732394_at) / Fold change /veh CLDN22 /// WWC2 (11732394_at) / RFU HLA-DPB1 (11760878_x_at) / Fold change /veh HLA-DPB1 (11760878_x_at) / RFU SPINT1 (11716480_a_at) / Fold change /veh SPINT1 (11716480_a_at) / RFU GAP43 (11754022_s_at) / Fold change /veh GAP43 (11754022_s_at) / RFU A4GNT (11735810_at) / Fold change /veh A4GNT (11735810_at) / RFU PRB3 (11715151_x_at) / Fold change /veh PRB3 (11715151_x_at) / RFU TUBB4B (11761932_at) / Fold change /veh TUBB4B (11761932_at) / RFU CAPN14 (11732068_a_at) / Fold change /veh CAPN14 (11732068_a_at) / RFU TMCC2 (11721928_a_at) / Fold change /veh TMCC2 (11721928_a_at) / RFU IRGQ (11745062_a_at) / Fold change /veh IRGQ (11745062_a_at) / RFU FAM174B (11720279_a_at) / Fold change /veh FAM174B (11720279_a_at) / RFU TMPRSS4 (11748680_a_at) / Fold change /veh TMPRSS4 (11748680_a_at) / RFU FAM212B (11763350_a_at) / Fold change /veh FAM212B (11763350_a_at) / RFU PLEKHG5 (11743358_a_at) / Fold change /veh PLEKHG5 (11743358_a_at) / RFU ZSCAN30 (11745921_a_at) / Fold change /veh ZSCAN30 (11745921_a_at) / RFU CMKLR1 (11741424_a_at) / Fold change /veh CMKLR1 (11741424_a_at) / RFU LOC101060620 /// MAPK8IP1 (11723275_at) / Fold change /veh LOC101060620 /// MAPK8IP1 (11723275_at) / RFU SPTSSB (11747773_x_at) / Fold change /veh SPTSSB (11747773_x_at) / RFU PRSS12 (11739890_at) / Fold change /veh PRSS12 (11739890_at) / RFU BIN1 (11741810_x_at) / Fold change /veh BIN1 (11741810_x_at) / RFU WNT11 (11732464_a_at) / Fold change /veh WNT11 (11732464_a_at) / RFU C10orf10 (11716521_a_at) / Fold change /veh C10orf10 (11716521_a_at) / RFU C5orf56 (11738089_at) / Fold change /veh C5orf56 (11738089_at) / RFU CYB561 (11721691_x_at) / Fold change /veh CYB561 (11721691_x_at) / RFU ANKRD19P (11752326_a_at) / Fold change /veh ANKRD19P (11752326_a_at) / RFU OR2T12 /// OR2T33 /// OR2T8 (11738714_s_at) / Fold change /veh OR2T12 /// OR2T33 /// OR2T8 (11738714_s_at) / RFU VCAN (11748164_a_at) / Fold change /veh VCAN (11748164_a_at) / RFU JSRP1 (11732532_at) / Fold change /veh JSRP1 (11732532_at) / RFU KRTAP10-11 (11738290_x_at) / Fold change /veh KRTAP10-11 (11738290_x_at) / RFU MYO3A (11730013_a_at) / Fold change /veh MYO3A (11730013_a_at) / RFU EBF3 (11725865_a_at) / Fold change /veh EBF3 (11725865_a_at) / RFU CAMK2N1 (11719241_x_at) / Fold change /veh CAMK2N1 (11719241_x_at) / RFU C5orf56 (11738088_a_at) / Fold change /veh C5orf56 (11738088_a_at) / RFU OLFML3 (11715873_a_at) / Fold change /veh OLFML3 (11715873_a_at) / RFU LOC100653217 /// NTM (11731650_a_at) / Fold change /veh LOC100653217 /// NTM (11731650_a_at) / RFU MAPK11 (11762145_a_at) / Fold change /veh MAPK11 (11762145_a_at) / RFU FIZ1 (11724087_x_at) / Fold change /veh FIZ1 (11724087_x_at) / RFU OASL (11726364_x_at) / Fold change /veh OASL (11726364_x_at) / RFU SOX15 (11748057_x_at) / Fold change /veh SOX15 (11748057_x_at) / RFU CD79A (11719716_a_at) / Fold change /veh CD79A (11719716_a_at) / RFU HIST1H1D (11736915_at) / Fold change /veh HIST1H1D (11736915_at) / RFU CASKIN2 (11723855_a_at) / Fold change /veh CASKIN2 (11723855_a_at) / RFU LOC730098 (11760151_x_at) / Fold change /veh LOC730098 (11760151_x_at) / RFU OR4N2 (11742367_at) / Fold change /veh OR4N2 (11742367_at) / RFU PRRT2 (11749266_a_at) / Fold change /veh PRRT2 (11749266_a_at) / RFU SNX32 (11753110_a_at) / Fold change /veh SNX32 (11753110_a_at) / RFU CDHR5 (11726645_a_at) / Fold change /veh CDHR5 (11726645_a_at) / RFU RCAN1 (11760418_a_at) / Fold change /veh RCAN1 (11760418_a_at) / RFU FAM167A (11723789_a_at) / Fold change /veh FAM167A (11723789_a_at) / RFU FAM26E (11764081_at) / Fold change /veh FAM26E (11764081_at) / RFU ISYNA1 (11749810_s_at) / Fold change /veh ISYNA1 (11749810_s_at) / RFU ACY1 (11761880_at) / Fold change /veh ACY1 (11761880_at) / RFU 11764098_at / Fold change /veh 11764098_at / RFU SAMD14 (11745864_x_at) / Fold change /veh SAMD14 (11745864_x_at) / RFU NPB (11741838_a_at) / Fold change /veh NPB (11741838_a_at) / RFU TMPRSS6 (11731388_a_at) / Fold change /veh TMPRSS6 (11731388_a_at) / RFU KRTAP10-2 (11738614_at) / Fold change /veh KRTAP10-2 (11738614_at) / RFU ARHGAP8 /// PRR5-ARHGAP8 (11727945_x_at) / Fold change /veh ARHGAP8 /// PRR5-ARHGAP8 (11727945_x_at) / RFU KRTAP5-7 /// NADSYN1 (11734609_at) / Fold change /veh KRTAP5-7 /// NADSYN1 (11734609_at) / RFU RASL12 (11751679_a_at) / Fold change /veh RASL12 (11751679_a_at) / RFU CDKN2B (11736163_a_at) / Fold change /veh CDKN2B (11736163_a_at) / RFU PRF1 (11729649_at) / Fold change /veh PRF1 (11729649_at) / RFU, ZNF638 /// ZNF638-IT1 / Fold change vs veh, ZNF638 /// ZNF638-IT1 / RFU, PANK3 / Fold change vs veh, PANK3 / RFU, SH3YL1 / Fold change vs veh, SH3YL1 / RFU, ZEB2 / Fold change vs veh, ZEB2 / RFU, NRIP1 / Fold change vs veh, NRIP1 / RFU, PTTG1IP / Fold change vs veh, PTTG1IP / RFU, CAPN2 / Fold change vs veh, CAPN2 / RFU, MED14 / Fold change vs veh, MED14 / RFU, SNORA58 / Fold change vs veh, SNORA58 / RFU, C1orf63 / Fold change vs veh, C1orf63 / RFU, LRRFIP1 / Fold change vs veh, LRRFIP1 / RFU, NDUFAF7 / Fold change vs veh, NDUFAF7 / RFU, SLC12A2 / Fold change vs veh, SLC12A2 / RFU, IBTK / Fold change vs veh, IBTK / RFU, ESF1 / Fold change vs veh, ESF1 / Fold change vs veh, TMEM50B / RFU, TAOK1 / Fold change vs veh, TAOK1 / RFU, ACBD3 / Fold change vs veh, ACBD3 / RFU, TMA16 / Fold change vs veh, TMA16 / RFU, RWDD3 / Fold change vs veh, RWDD3 / RFU, BCAT1 / Fold change vs veh, BCAT1 / RFU, EDEM3 / Fold change vs veh, EDEM3 / RFU, TMEM33 / Fold change vs veh, TMEM33 / RFU, WDR75 / Fold change vs veh, WDR75 / RFU, AHCTF1 / Fold change vs veh, AHCTF1 / RFU, TFRC / Fold change vs veh, TFRC / RFU, ZDHHC17 / Fold change vs veh, ZDHHC17 / RFU, NOM1 / Fold change vs veh, NOM1 / RFU, ARL8B / Fold change vs veh, ARL8B / RFU, ZBTB11 / Fold change vs veh, ZBTB11 / RFU, TAMM41 / Fold change vs veh, TAMM41 / RFU, KIAA1704 /// LOC100996395 / Fold change vs veh, KIAA1704 /// LOC100996395 / RFU, ING1 / Fold change vs veh, ING1 / RFU, TRMT61B / Fold change vs veh, TRMT61B / RFU, FUBP3 / Fold change vs veh, FUBP3 / RFU, TP53 / Fold change vs veh, TP53 / RFU, TNKS2 / Fold change vs veh, TNKS2 / RFU, ZFP14 / Fold change vs veh, ZFP14 / RFU, ACTR2 / Fold change vs veh, ACTR2 / RFU, PPP3R1 / Fold change vs veh, PPP3R1 / RFU, PIK3R1 / Fold change vs veh, PIK3R1 / RFU, HNRNPA1 / Fold change vs veh, HNRNPA1 / RFU, RNF170 / Fold change vs veh, RNF170 / RFU, ZNF28 / Fold change vs veh, ZNF28 / RFU, RNGTT / Fold change vs veh, RNGTT / RFU, OGT / Fold change vs veh, OGT / RFU, BRD1 / Fold change vs veh, BRD1 / RFU, MARS / Fold change vs veh, MARS / RFU, ZNF655 / Fold change vs veh, ZNF655 / RFU, FAHD1 / Fold change vs veh, FAHD1 / RFU, BDP1 / Fold change vs veh, BDP1 / RFU, LRRCC1 / Fold change vs veh, LRRCC1 / RFU, ARID1A / Fold change vs veh, ARID1A / RFU, ZNF146 / Fold change vs veh, ZNF146 / RFU, ZNF330 / Fold change vs veh, ZNF330 / RFU, GPN3 / Fold change vs veh, GPN3 / RFU, C9orf123 / Fold change vs veh, C9orf123 / RFU, N4BP2L2 / Fold change vs veh, N4BP2L2 / RFU, ARFIP1 / Fold change vs veh, ARFIP1 / RFU, FAM179B / Fold change vs veh, FAM179B / RFU, BCL10 / Fold change vs veh, BCL10 / RFU, UHRF1BP1L / Fold change vs veh, UHRF1BP1L / RFU, BET1 / Fold change vs veh, BET1 / RFU, CNOT2 / Fold change vs veh, CNOT2 / RFU, ZNF268 / Fold change vs veh, ZNF268 / Fold change vs veh, ZNF507 / RFU, DGCR2 / Fold change vs veh, DGCR2 / RFU, WDSUB1 / Fold change vs veh, WDSUB1 / Fold change vs veh, HSP90B1 /// MIR3652 / RFU, ADSS / Fold change vs veh, ADSS / RFU, GK / Fold change vs veh, GK / RFU, ZNF148 / Fold change vs veh, ZNF148 / RFU, TAF9 / Fold change vs veh, TAF9 / RFU, SLC1A5 / Fold change vs veh, SLC1A5 / RFU, SLMO2 / Fold change vs veh, SLMO2 / RFU, ABCC4 / Fold change vs veh, ABCC4 / RFU, LOC101060439 /// RAP1B / Fold change vs veh, LOC101060439 /// RAP1B / RFU, RFX7 / Fold change vs veh, RFX7 / RFU, GTPBP10 / Fold change vs veh, GTPBP10 / RFU, CNEP1R1 / Fold change vs veh, CNEP1R1 / RFU, BIVM-ERCC5 /// ERCC5 / Fold change vs veh, BIVM-ERCC5 /// ERCC5 / RFU, ILF3 / Fold change vs veh, ILF3 / RFU 11762660_at / Fold change /veh 11762660_at / RFU VCAN (11757783_s_at) / Fold change /veh VCAN (11757783_s_at) / RFU DDX43 (11728927_at) / Fold change /veh DDX43 (11728927_at) / RFU KRT8 (11758188_x_at) / Fold change /veh KRT8 (11758188_x_at) / RFU NKD1 (11759106_at) / Fold change /veh NKD1 (11759106_at) / RFU SRD5A1 (11742802_a_at) / Fold change /veh SRD5A1 (11742802_a_at) / RFU TPSAB1 /// TPSB2 (11721975_s_at) / Fold change /veh TPSAB1 /// TPSB2 (11721975_s_at) / RFU GSTM3 (11746129_a_at) / Fold change /veh GSTM3 (11746129_a_at) / RFU IL23R (11737362_x_at) / Fold change /veh IL23R (11737362_x_at) / RFU TMEM51 (11727254_a_at) / Fold change /veh TMEM51 (11727254_a_at) / RFU PIWIL2 (11732686_x_at) / Fold change /veh PIWIL2 (11732686_x_at) / RFU ORM1 (11744905_x_at) / Fold change /veh ORM1 (11744905_x_at) / RFU CCDC152 (11743942_at) / Fold change /veh CCDC152 (11743942_at) / RFU ECM1 (11717891_a_at) / Fold change /veh ECM1 (11717891_a_at) / RFU IL23R (11748794_a_at) / Fold change /veh IL23R (11748794_a_at) / RFU TNFAIP8L3 (11732012_x_at) / Fold change /veh TNFAIP8L3 (11732012_x_at) / RFU MBOAT4 (11741988_at) / Fold change /veh MBOAT4 (11741988_at) / RFU 11764193_at / Fold change /veh 11764193_at / RFU TMEM53 (11763286_at) / Fold change /veh TMEM53 (11763286_at) / RFU MAGEB2 (11727129_at) / Fold change /veh MAGEB2 (11727129_at) / RFU TMEM200A (11744735_a_at) / Fold change /veh TMEM200A (11744735_a_at) / RFU CCDC152 (11751479_a_at) / Fold change /veh CCDC152 (11751479_a_at) / RFU FAM211A (11726209_a_at) / Fold change /veh FAM211A (11726209_a_at) / RFU RGS16 (11746705_a_at) / Fold change /veh RGS16 (11746705_a_at) / RFU VCAN (11755009_s_at) / Fold change /veh VCAN (11755009_s_at) / RFU RHOB (11743442_s_at) / Fold change /veh RHOB (11743442_s_at) / RFU RGS16 (11720943_a_at) / Fold change /veh RGS16 (11720943_a_at) / RFU RGS16 (11720944_at) / Fold change /veh RGS16 (11720944_at) / RFU, VPS4B / Fold change vs veh, VPS4B / RFU, CREB1 / Fold change vs veh, CREB1 / RFU, DNAJC13 / Fold change vs veh, DNAJC13 / RFU, GNAQ / Fold change vs veh, GNAQ / RFU, CDK5R1 / Fold change vs veh, CDK5R1 / RFU, ZRANB3 / Fold change vs veh, ZRANB3 / RFU, CUL4A / Fold change vs veh, CUL4A / RFU, CCNY / Fold change vs veh, CCNY / RFU, UFL1 / Fold change vs veh, UFL1 / RFU, COG3 / Fold change vs veh, COG3 / RFU, DIAPH2 / Fold change vs veh, DIAPH2 / RFU, SKA2 / Fold change vs veh, SKA2 / RFU, AFF3 / Fold change vs veh, AFF3 / RFU, LMF1 / Fold change vs veh, LMF1 / RFU, IPO11 / Fold change vs veh, IPO11 / RFU, DFFB / Fold change vs veh, DFFB / RFU, FOXP1 / Fold change vs veh, FOXP1 / RFU, CARD8 / Fold change vs veh, CARD8 / RFU, STRN3 / Fold change vs veh, STRN3 / RFU, ADK / Fold change vs veh, ADK / RFU, RASSF2 / Fold change vs veh, RASSF2 / RFU, WIPF1 / Fold change vs veh, WIPF1 / RFU, LARP1B / Fold change vs veh, LARP1B / RFU, RASA1 / Fold change vs veh, RASA1 / RFU, RB1 / Fold change vs veh, RB1 / RFU, PPFIA1 / Fold change vs veh, PPFIA1 / RFU, MAT2A / Fold change vs veh, MAT2A / RFU, CCT5 / Fold change vs veh, CCT5 / RFU, WDR92 / Fold change vs veh, WDR92 / RFU, CUX1 / Fold change vs veh, CUX1 / RFU, TTC7A / Fold change vs veh, TTC7A / RFU, TMEM135 / Fold change vs veh, TMEM135 / RFU, DEPTOR / Fold change vs veh, DEPTOR / RFU, CPM / Fold change vs veh, CPM / RFU, DNAJB6 / Fold change vs veh, DNAJB6 / RFU, CACNA2D3 / Fold change vs veh, CACNA2D3 / RFU, DTX4 / Fold change vs veh, DTX4 / RFU, TFCP2 / Fold change vs veh, TFCP2 / RFU, GMCL1 /// GMCL1P1 / Fold change vs veh, GMCL1 /// GMCL1P1 / RFU, AEBP2 / Fold change vs veh, AEBP2 / RFU, SNHG1 /// SNORD22 /// SNORD25 /// SNORD26 /// SNORD27 /// SNORD28 /// SNORD29 /// SNORD31 / Fold change vs veh, SNHG1 /// SNORD22 /// SNORD25 /// SNORD26 /// SNORD27 /// SNORD28 /// SNORD29 /// SNORD31 / Fold change (Aza/veh), C12orf56 (ProbeSet 11735607_a_at) / Fold change (ACY-1035/veh), C12orf56 (ProbeSet 11735607_a_at) / Fold change (Aza/veh), FGFR1OP (ProbeSet 11751329_s_at) / Fold change (ACY-1035/veh), FGFR1OP (ProbeSet 11751329_s_at) / Fold change (Aza/veh), VPS36 (ProbeSet 11739960_a_at) / Fold change (ACY-1035/veh), VPS36 (ProbeSet 11739960_a_at) / RFU SYPL1 (11715823_x_at) / Fold change /veh SYPL1 (11715823_x_at) / RFU IGFBP7 (11715501_s_at) / Fold change /veh IGFBP7 (11715501_s_at) / RFU REEP3 (11722064_at) / Fold change /veh REEP3 (11722064_at) / RFU IGLL1 (11728026_x_at) / Fold change /veh IGLL1 (11728026_x_at): dose or concentration left out as unconfirmed
# Settings: ProbeSet 11747937_a_at; LIST D
smiles,measurement,value
Nc1ncn([C@@H]2O[C@H](CO)[C@@H](O)[C@H]2O)c(=O)n1 [azacitidine],"Fold change vs veh, DNAJB6",0.52
